Consider 5 compounds from patent US20110171160A1, “POLYMER CONJUGATES OF KISS1 PEPTIDES” (Nektar Therapeutics, priority 2008, published 2011).

This assay concerns the target T1, human GPR54 (Homo sapiens, UniProt Q969F8).
T1 construct: host or cells: Chem-1 host cells, with the promiscuous G protein Galpha15 (Gal 5 [sic])
The assay can be described thus: FLIPR calcium flux agonist assay on GPR54-expressing Chem-1 cell line. It is filed as cell-based. Particulars: time of release n/a (no release incubation); for EC50: read-out: EC50 (nM) of agonist activation at GPR54. Here is the method:
A FLIPR assay was conducted to screen Kisspeptin and PEG-Kisspeptin peptides for dose-dependent agonist activities on the GP[…]-Protein coupled receptor. […] All compounds were diluted in their storage solvents to produce 250× (of the top dose listed below) master stock solutions. Compounds were then transferred from their master stock solutions into a daughter plate that was used in the assay. Each 250× solution was diluted into assay buffer (1×HBSS with 20 mM HEPES and 2.5 mM Probenecid) to obtain the final top test concentration. Calcium flux agonist assay: Chemicon's cloned human GPR54-expressing cell line is made in the Chem-1 host, which supports high levels of recombinant GPR54 expression on the cell surface and contains high levels of the promiscuous G protein Gal 5 to couple the receptor to the calcium signaling pathway. […] Reference agonist was handled as mentioned above, serving as assay control. Assay was read for 180 seconds using the FLIPR^TETRA. All plates were subjected to appropriate baseline corrections. Once baseline corrections were processed, maximum fluorescence values were exported and data manipulated to calculate percentage activation and Z'. Dose response curves were generated using GraphPad Prism. The curves were fit by utilizing sigmoidal dose response (variable slope) fitting with the bottom parameter fixed at 0 (FIGS.
(In general: Calcium assays in cells follow changes in intracellular calcium, usually with a dye or a luminescent sensor.)

No end group written: not given here.

T1 sequence (Q969F8 whole entry): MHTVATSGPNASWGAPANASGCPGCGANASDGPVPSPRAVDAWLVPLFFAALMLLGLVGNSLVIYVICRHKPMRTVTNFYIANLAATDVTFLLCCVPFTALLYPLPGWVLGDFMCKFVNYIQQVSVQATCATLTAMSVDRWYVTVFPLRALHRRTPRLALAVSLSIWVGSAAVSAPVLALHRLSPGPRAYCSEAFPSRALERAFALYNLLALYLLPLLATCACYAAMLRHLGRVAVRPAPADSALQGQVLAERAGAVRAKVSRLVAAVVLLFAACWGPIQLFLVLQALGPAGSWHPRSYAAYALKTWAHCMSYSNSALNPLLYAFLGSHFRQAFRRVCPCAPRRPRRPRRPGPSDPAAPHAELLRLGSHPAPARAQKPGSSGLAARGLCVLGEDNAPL

One may read the EC50 as the midpoint of the concentration-response curve. As to `CC(C)C[C@H](NC(=O)CNC(=O)[C@H](Cc1ccccc1)NC(=O)[C@H](CO)NC(=O)[C@H](CC(N)=O)NC(=O)[C@H](Cc1c[nH]c2ccccc12)NC(=O)[C@H](CC(N)=O)NC(=O)[C@@H](N)Cc1ccc(O)cc1)C(=O)N[C@@H](CCCNC(=N)N)C(=O)N[C@@H](Cc1ccccc1)C(N)=O` [KP10], the “Fold change compared to metastin” value is listed as 1 fold and the EC50 was found to be 10 nM.

For `CC(C)C[C@H](NC(=O)CNC(=O)[C@H](Cc1ccccc1)NC(=O)[C@H](CO)NC(=O)[C@H](CC(N)=O)NC(=O)[C@H](Cc1c[nH]c2ccccc12)NC(=O)[C@H](CC(N)=O)NC(=O)[C@H](Cc1ccc(O)cc1)NC(=O)[C@H](CC(N)=O)NC(=O)[C@@H]1CCCN1C(=O)[C@@H](N)CC(C)C)C(=O)N[C@@H](CCCNC(=N)N)C(=O)N[C@@H](Cc1ccccc1)C(N)=O` [KP13], the “Fold change compared to metastin” value is given as 1 fold and the EC50 came out at 11 nM.

With “Ald30K-KP13: Kisspeptin-13 mono-PEGylated with linear mPEG-ButyrALD-30K by reductive amination (stable conjugate) (LPNYNWNSFGLRF; also: mono-PEGylated with mPEG-butyraldehyde 30K by reductive amination, site not given here; UniProt Q15726 109-121, looked up)”, the “EC50 (nM) of agonist activation at GPR54” value was “No activity”.

For the compound “Ald40K-KP54: Kisspeptin-54 mono-PEGylated with mPEG2-ButyrAldehyde-40K by reductive amination (stable conjugate) (GTSLSPPPESSGSPQQPGLSAPHSRQIPAPQGAVLVQREKDLPNYNWNSFGLRF-NH2; also: mono-PEGylated with mPEG2-butyraldehyde 40K by reductive amination, site not given here; UniProt Q15726 68-121, looked up)”, the “EC50 (nM) of agonist activation at GPR54” value is reported as “No activity”.

With “GTSLSPPPESSGSPQQPGLSAPHSRQIPAPQGAVLVQREKDLPNYNWNSFGLRF-NH2 [KP54]”, the “Fold change compared to metastin” value is given as 16 fold and the EC50 was found to be 190 nM.
